Results on two molecules are retold here after patent publication US7439051B2, “Process for utilizing epitopes recognized by natural antibodies” (Mirus Bio Corporation, priority 1999, dated 2008).

In one assay the target is T1, CRP (Rattus norvegicus, UniProt P48199).
T1 construct: from tissue; host or cells: rat serum
T1 sequence (P48199 20-230): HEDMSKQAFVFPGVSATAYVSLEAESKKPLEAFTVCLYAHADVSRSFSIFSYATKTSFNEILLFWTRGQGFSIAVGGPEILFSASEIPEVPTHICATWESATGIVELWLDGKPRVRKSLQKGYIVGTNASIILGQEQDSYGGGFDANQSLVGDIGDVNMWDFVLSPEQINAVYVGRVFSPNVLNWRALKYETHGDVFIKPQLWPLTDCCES
As to the kind of experiment: Reduction by PC of K+/R+ phage protection in vitro. It counts as biochemical. From the text: PC reduced the protection of K+/R+ phage both in vivo and in vitro, thereby confirming the role of CRP as a K+/R+ protection agent (FIG. 1B and Table 2K, respectively). […] Direct interaction between CRP and K+/R+ phage was shown with the phage immobilized on Affi-Gel 15. Immobilized K+/R+ phage, but not K−/R− phage, bound a substantial amount of serum protein that was eluted from the column by ε-ACA (FIG. 2C). […] The identification of this protein as CRP was confirmed by the Western blot analysis (FIG. 2B, lanes 2 and 3). No binding of CRP to K−/R− phage or a mock column was detected. […] The presence of multiple CRP molecules on surface of K+/R+ phage could provide steric protection against C-mediated inactivation. The role of CRP in protecting K+/R+ phage against C is consistent with the lack of protection for K+/R+ phage in human serum which normally contains little CRP.

Assay [1] can be described thus: Phage survival in rat serum in vitro (plaque forming assay). In kind it is in vitro ADME. The conditions noted are these: protein eluted from Lysine-Sepharose by ε-ACA; data not shown. On the procedure: Serum preparation. Rat serum was prepared by clotting blood on ice.

The IC50 is the concentration at which inhibition is half-maximal. For `C[N+](C)(C)CCOP(=O)(O)O` [PC, phosphorylcholine], the 50% inhibitory concentration (IC50) at CRP (K+19/16 clone) and at CRP (R+19/14 clone) was around 50 µM each time.

B1: Plasminogen: plasminogen bound by Lysine-Sepharose, eluted by ε-aminocaproic acid (protein, UniProt P00747 20-810, looked up)
Plasminogen: EPLDDYVNTQGASLFSVTKKQLGAGSIEECAAKCEEDEEFTCRAFQYHSKEQQCVIMAENRKSSIIIRMRDVVLFEKKVYLSECKTGNGKNYRGTMSKTKNGITCQKWSSTSPHRPRFSPATHPSEGLEENYCRNPDNDPQGPWCYTTDPEKRYDYCDILECEEECMHCSGENYDGKISKTMSGLECQAWDSQSPHAHGYIPSKFPNKNLKKNYCRNPDRELRPWCFTTDPNKRWELCDIPRCTTPPPSSGPTYQCLKGTGENYRGNVAVTVSGHTCQHWSAQTPHTHNRTPENFPCKNLDENYCRNPDGKRAPWCHTTNSQVRWEYCKIPSCDSSPVSTEQLAPTAPPELTPVVQDCYHGDGQSYRGTSSTTTTGKKCQSWSSMTPHRHQKTPENYPNAGLTMNYCRNPDADKGPWCFTTDPSVRWEYCNLKKCSGTEASVVAPPPVVLLPDVETPSEEDCMFGNGKGYRGKRATTVTGTPCQDWAAQEPHRHSIFTPETNPRAGLEKNYCRNPDGDVGGPWCYTTNPRKLYDYCDVPQCAAPSFDCGKPQVEPKKCPGRVVGGCVAHPHSWPWQVSLRTRFGMHFCGGTLISPEWVLTAAHCLEKSPRPSSYKVILGAHQEVNLEPHVQEIEVSRLFLEPTRKDIALLKLSSPAVITDKVIPACLPSPNYVVADRTECFITGWGETQGTFGAGLLKEAQLPVIENKVCNRYEFLNGRVQSTELCAGHLAGGTDSCQGDSGGPLVCFEKDKYILQGVTSWGLGCARPNKPGVYVRVSRFVTWIEGVMRNN
On to B1, for which the “protective effect on phage” value in assay [1] is “no protective effect”.
